# Data reported in patent US20240300932A1, “N-PHENYLIMINE DERIVATIVE AND PREPARATION METHOD AND USE THEREOF” (Guizhou University, priority 2023, published 2024).
# Assays:
# Experiment in all cases: Post-emergence herbicidal activity test (stem and leaf spray, pot culture)
# Type in all cases: in vivo
# Details in all cases: 3 weeks after spraying
# Abutilon theophrasti = test system: Abutilon theophrasti
# Method in brief: (§1)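 Pot-grown weeds in loam (pH 7, 1.63% organic matter) were spray-treated on stems and leaves at the 2- to 3-leaf stage with compound in acetone/Tween 80 plus 1.5 liters/ha methyl oleate at 10, 5 or 2.5 g/mu. Fresh-weight growth control was scored 3 weeks later as grades 0–5.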
# Echinochloa crusgalli = test system: Echinochloa crusgalli
# Method in brief: as §1
# Portulaca oleracea = test system: Portulaca oleracea
# Method in brief: as §1
# Setaria viridis = test system: Setaria viridis
# Method in brief: as §1
# Amaranthus retroflexus = test system: Amaranthus retroflexus
# Method in brief: as §1
# Trifoliumre pensL. = test system: Trifoliumre pensL.
# Method in brief: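 Pot-grown weeds in loam (pH 7), greenhouse at 20–30 °C, sprayed once post-emergence at the 2–3-leaf stage. Compound in acetone with Tween 80 plus methyl oleate oil (1.5 L/ha), applied at 10, 5 and 2.5 g/mu by spray tower. Effect scored 3 weeks after spraying, averaged over three repeats.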
SMILES,"Post-emergence herbicidal activity, A. theophrasti (grade) (Abutilon theophrasti; dosage 2.5 g/mu)","Post-emergence herbicidal activity, A. theophrasti (grade) (Abutilon theophrasti; dosage 5 g/mu)","Post-emergence herbicidal activity, A. theophrasti (grade) (Abutilon theophrasti; dosage 10 g/mu)","Post-emergence herbicidal activity, E. crusgalli (grade) (Echinochloa crusgalli; dosage 2.5 g/mu)","Post-emergence herbicidal activity, E. crusgalli (grade) (Echinochloa crusgalli; dosage 5 g/mu)","Post-emergence herbicidal activity, E. crusgalli (grade) (Echinochloa crusgalli; dosage 10 g/mu)","Post-emergence herbicidal activity, P. oleracea (grade) (Portulaca oleracea; dosage 2.5 g/mu)","Post-emergence herbicidal activity, P. oleracea (grade) (Portulaca oleracea; dosage 5 g/mu)","Post-emergence herbicidal activity, P. oleracea (grade) (Portulaca oleracea; dosage 10 g/mu)","Post-emergence herbicidal activity, S. viridis (grade) (Setaria viridis; dosage 2.5 g/mu)","Post-emergence herbicidal activity, S. viridis (grade) (Setaria viridis; dosage 5 g/mu)","Post-emergence herbicidal activity, S. viridis (grade) (Setaria viridis; dosage 10 g/mu)","Post-emergence herbicidal activity, A. retroflexus (grade) (Amaranthus retroflexus; dosage 2.5 g/mu)","Post-emergence herbicidal activity, A. retroflexus (grade) (Amaranthus retroflexus; dosage 5 g/mu)","Post-emergence herbicidal activity, A. retroflexus (grade) (Amaranthus retroflexus; dosage 10 g/mu)","Post-emergence herbicidal activity, Trifoliumre pensL. (grade) (Trifoliumre pensL.; dosage 2.5 g/mu)","Post-emergence herbicidal activity, Trifoliumre pensL. (grade) (Trifoliumre pensL.; dosage 5 g/mu)","Post-emergence herbicidal activity, Trifoliumre pensL. (grade) (Trifoliumre pensL.; dosage 10 g/mu)"
O=C1C2=C(CCCC2)C(=O)N1c1cc(OCc2nc(-c3ccc(Cl)nc3Cl)no2)c(Cl)cc1F [Compound A16],5 (Grade 5: the growth control rate is greater than or equal to 85%),5 (Grade 5: the growth control rate is greater than or equal to 85%),5 (Grade 5: the growth control rate is greater than or equal to 85%),1 (Grade 1: the growth control rate is greater than or equal to 5% and less than 20%),2 (Grade 2: the growth control rate is greater than or equal to 20% and less than 40%),3 (Grade 3: the growth control rate is greater than or equal to 40% and less than 60%),4 (Grade 4: the growth control rate is greater than or equal to 60% and less than 85%),5 (Grade 5: the growth control rate is greater than or equal to 85%),5 (Grade 5: the growth control rate is greater than or equal to 85%),2 (Grade 2: the growth control rate is greater than or equal to 20% and less than 40%),3 (Grade 3: the growth control rate is greater than or equal to 40% and less than 60%),4 (Grade 4: the growth control rate is greater than or equal to 60% and less than 85%),5 (Grade 5: the growth control rate is greater than or equal to 85%),5 (Grade 5: the growth control rate is greater than or equal to 85%),5 (Grade 5: the growth control rate is greater than or equal to 85%),4 (Grade 4: the growth control rate is greater than or equal to 60% and less than 85%),5 (Grade 5: the growth control rate is greater than or equal to 85%),5 (Grade 5: the growth control rate is greater than or equal to 85%)
O=C1C2=C(CCCC2)C(=O)N1c1cc(OCc2nnc(-c3cccc(I)c3)o2)c(Cl)cc1F [Compound B11],4 (Grade 4: the growth control rate is greater than or equal to 60% and less than 85%),5 (Grade 5: the growth control rate is greater than or equal to 85%),5 (Grade 5: the growth control rate is greater than or equal to 85%),1 (Grade 1: the growth control rate is greater than or equal to 5% and less than 20%),2 (Grade 2: the growth control rate is greater than or equal to 20% and less than 40%),3 (Grade 3: the growth control rate is greater than or equal to 40% and less than 60%),5 (Grade 5: the growth control rate is greater than or equal to 85%),5 (Grade 5: the growth control rate is greater than or equal to 85%),5 (Grade 5: the growth control rate is greater than or equal to 85%),2 (Grade 2: the growth control rate is greater than or equal to 20% and less than 40%),3 (Grade 3: the growth control rate is greater than or equal to 40% and less than 60%),4 (Grade 4: the growth control rate is greater than or equal to 60% and less than 85%),4 (Grade 4: the growth control rate is greater than or equal to 60% and less than 85%),5 (Grade 5: the growth control rate is greater than or equal to 85%),5 (Grade 5: the growth control rate is greater than or equal to 85%),5 (Grade 5: the growth control rate is greater than or equal to 85%),5 (Grade 5: the growth control rate is greater than or equal to 85%),5 (Grade 5: the growth control rate is greater than or equal to 85%)
O=C1C2=C(CCCC2)C(=O)N1c1cc(OCc2nnc(-c3ccc(F)cc3)o2)c(Cl)cc1F [Compound B14],4 (Grade 4: the growth control rate is greater than or equal to 60% and less than 85%),5 (Grade 5: the growth control rate is greater than or equal to 85%),5 (Grade 5: the growth control rate is greater than or equal to 85%),1 (Grade 1: the growth control rate is greater than or equal to 5% and less than 20%),2 (Grade 2: the growth control rate is greater than or equal to 20% and less than 40%),3 (Grade 3: the growth control rate is greater than or equal to 40% and less than 60%),4 (Grade 4: the growth control rate is greater than or equal to 60% and less than 85%),5 (Grade 5: the growth control rate is greater than or equal to 85%),5 (Grade 5: the growth control rate is greater than or equal to 85%),2 (Grade 2: the growth control rate is greater than or equal to 20% and less than 40%),3 (Grade 3: the growth control rate is greater than or equal to 40% and less than 60%),4 (Grade 4: the growth control rate is greater than or equal to 60% and less than 85%),5 (Grade 5: the growth control rate is greater than or equal to 85%),5 (Grade 5: the growth control rate is greater than or equal to 85%),5 (Grade 5: the growth control rate is greater than or equal to 85%),5 (Grade 5: the growth control rate is greater than or equal to 85%),5 (Grade 5: the growth control rate is greater than or equal to 85%),5 (Grade 5: the growth control rate is greater than or equal to 85%)
O=C1C2=C(CCCC2)C(=O)N1c1cc(OCc2nnc(-c3cccc(Br)c3)o2)c(Cl)cc1F [Compound B10],4 (Grade 4: the growth control rate is greater than or equal to 60% and less than 85%),5 (Grade 5: the growth control rate is greater than or equal to 85%),5 (Grade 5: the growth control rate is greater than or equal to 85%),1 (Grade 1: the growth control rate is greater than or equal to 5% and less than 20%),2 (Grade 2: the growth control rate is greater than or equal to 20% and less than 40%),3 (Grade 3: the growth control rate is greater than or equal to 40% and less than 60%),5 (Grade 5: the growth control rate is greater than or equal to 85%),5 (Grade 5: the growth control rate is greater than or equal to 85%),5 (Grade 5: the growth control rate is greater than or equal to 85%),2 (Grade 2: the growth control rate is greater than or equal to 20% and less than 40%),3 (Grade 3: the growth control rate is greater than or equal to 40% and less than 60%),4 (Grade 4: the growth control rate is greater than or equal to 60% and less than 85%),4 (Grade 4: the growth control rate is greater than or equal to 60% and less than 85%),5 (Grade 5: the growth control rate is greater than or equal to 85%),5 (Grade 5: the growth control rate is greater than or equal to 85%),5 (Grade 5: the growth control rate is greater than or equal to 85%),5 (Grade 5: the growth control rate is greater than or equal to 85%),5 (Grade 5: the growth control rate is greater than or equal to 85%)
